The test system of experiment [1] is LNCaP cells. The experiment can be described thus: Western blot of endogenous KChAP (899 antibody) after apoptotic stimulus. The class given is cell-based, human. From the text: (§1) Antibodies and Western Blotting Two antibodies were used to monitor intracellular levels of KChAP protein in control and Ad/KChAP infected cells. Antibody 899 was raised against a bacterial fusion protein which consisted of the C-terminal 169 amino acids of KChAP (Wible et al, 1998; Kuryshecv et al 2000). It recognizes both endogenous and overexpressed KChAP. Antibody 088 was raised against a peptide in the N-terminus of KChAP which is not present in PIAS3 (SPSPLASIPPTLLTPGTLL-GPKREVDMH, SEQ ID NO. 3). Antibody 088 recognizes only overexpressed, not endogenous, KChAP. Affinity purified antibodies were used in Western blotting. Other antibodies used for Western blotting to detect the following proteins were obtained from commercial sources: p53 (DO-1; Santa Cruz Biotech.), STAT1, STAT3, and cyclins A, B, and D3 (Transduction Labs), actin (clone AC-40, Sigma), phospho-p53 (ser 15) (Cell Signaling Tech. Inc.), PARP (we used two antibodies interchangeably which recognize both intact and cleaved PARP; one from Cell Signaling Inc., and one from Pharmingen), monoclonal Rb (Pharmingen), and p21 (WAF1 Ab1; Oncogene Res. Pdts).
(§2) Cells were lysed in a buffer consisting of 1% Triton-X 100, 150 mM NaCl, 50 mM Tris, 1 mM EDTA, pH 7.5 containing freshly added protease inhibitors (Complete, Roche Mol. Biol.) and the phosphatase inhibitors sodium fluoride (50 mM) and sodium orthovanadate (1 mM) for 30 minutes on ice. Insoluble debris was pelleted at 20,800×g for 10 minutes at 4° C. Lysate protein concentrations were determined by the BCA method (Pierce), and aliquots were boiled in a reducing SDS sample buffer to denature protein. SDS PAGE gels were blotted to PVDF membranes using a semi-dry blotting apparatus. Blots were blocked overnight in 5% milk (Bio-Rad) in PBS-T (PBS plus 0.1% Tween-20) at 4° C. Primary antibodies diluted in blocking buffer were incubated with the blots for one hour at room temperature (RT). Blots were washed with PBS-T and incubated with HRP (horseradish peroxidase)-conjugated secondary antibodies (Amersham Pharmacia) in blocking buffer for 1 hour at RT. Blots were developed with the ECL-Plus kit (Amersham Pharmacia).
(§3) We observed an increase in the amount of endogenous KChAP detected in cells exposed to STS. […] Multiple bands are detected in both cell lysates with the 899 antibody; a 68 kD doublet which is close to the predicted molecular weight of KChAP and PIAS3 and an upper band of about 85 kD. […] The signal then drops to control levels or lower after about 6 hours in LNCaP cells and around 4 to 6 hours in Jurkat cells. This peak in immunoreactivity largely precedes detection of PARP cleavage, a marker for apoptosis. […] There was no change in the 85 kD band. […]
A general note: In western blotting, separated proteins are transferred to a membrane and probed.

For experiment [2], the system named is Jurkat cells. The experiment is described as above. The class given is cell-based. The settings on record: for signal of the 68 kD KChAP doublet (899 antibody): STS 1 μM.
Text: as §1, §2, §3

Experiment [3] concerns prostate cancer cells and breast cancer cells versus cardiomyocytes. The experiment can be described thus: Sensitivity of cancer versus non-cancerous cells to KChAP overexpression. The class given is cell-based.

Data on three molecules can be found in patent publication US8187586B2, “Methods of inducing apoptosis in hyperproliferative cells” (Case Western Reserve University, priority 2001, dated 2012).

With `CC[C@@]1(O)C(=O)OCc2c1cc1n(c2=O)Cc2cc3ccccc3nc2-1` [camptothecin], the “pattern of KChAP immunoreactivity after apoptotic inducing drug” value in experiment [1] (cell line not specified, data not shown) is recorded as “the same pattern was also obtained”.
Take `CN[C@@H]1C[C@H]2O[C@@](C)([C@@H]1OC)n1c3ccccc3c3c4c(c5c6ccccc6n2c5c31)C(=O)NC4` [staurosporine]: in experiment [2], the “KChAP content of Jurkat cells” value is given as “greatly increases their KChAP content”, the “apoptosis in Jurkat cells” value is given as “causes apoptosis” and the “signal of the 68 kD KChAP doublet (899 antibody)” value (“signal of the 68 kD KChAP doublet” below) is reported as “immunoreactivity increases”. Also, the “signal of the 68 kD KChAP doublet” value in experiment [2] (listed as STS) was “increased as early as one hour after the addition of STS”. Moreover, in experiment [1] (LNCaP, STS 1 μM), the “signal of the 68 kD KChAP doublet” value is given as “immunoreactivity increases” and the “time after which KChAP signal drops to control levels or lower” value is “about 6 hours”. Moreover, the “signal of the 68 kD KChAP doublet” value in experiment [1] (LNCaP, STS 1 μM, listed as STS) is given as “increased as early as one hour after the addition of STS”.

B1: KChAP: potassium channel modulatory protein, human sequence SEQ ID NO:2, overexpressed in cells (protein, listed as Homo sapiens)
chain: MKIKELYRRRFPRKTLGPSDLSLLSLPPGTSPVGSPGPLAPIPPTLLAPGTLLGPKREVDMHPPLPQPVHPDVTMKPLPFYEVYGELIRPTTLASTSSQRFEEAHFTFALTPQQVQQILTSREVLPGAKCDYTIQVQLRFCLCETSCPQEDYFPPNLFVKVNGKLCPLPGYLPPTKNGAEPKRPSRPINITPLARLSATVPNTIVVNWSSEFGRNYSLSVYLVRQLTAGTLLQKLRAKGIRNPDHSRALIKEKLTADPDSEVATTSLRVSLMCPLGKMRLTVPCRALTCAHLQSFDAALYLQMNEKKPTWTCPVCDKKAPYESLIIDGLFMEILSSCSDCDEIQFMEDGSWCPMKPKKEASEVCPPPGYGLDGLQYSPVQGGDPSENKKKVEVIDLTIESSSDEEDLPPTKKHCSVTSAAIPALPGSKGVLTSGHQPSSVLRSPAMGTLGGDFLSSLPLHEYPPAFPLGADIQGLDLFSFLQTESQHYGPSVITSLDEQDALGHFFQYRGTPSHFLGPLAPTLGSSHCSATPAPPPGRVSSIVAPGGALREGHGGPLPSGPSLTGCRSDIISLD
Regarding B1, the “sensitivity of cancer cells relative to non-cancerous cells such as cardiomyocytes” value in experiment [3] was “about ten times more sensitive”.
